# Key:
# [1] = Selectivity index, ratio of IC50 for human NHDF cells to EC50 for Trypanosoma brucei brucei; format: functional
# [2] = Cytotoxicity against human HepG2 cells assessed as cell growth inhibition; format: toxicity, cell-based
# [3] = Cytotoxicity against human HeLa S3 cells assessed as cell growth inhibition; format: toxicity, cell-based
# [4] = Cytotoxicity against human NHDF cells assessed as cell growth inhibition; format: toxicity, cell-based
# [5] = Cytotoxicity against human HL-60 cells assessed as cell growth inhibition; format: toxicity, cell-based
# [6] = tested on: Trypanosoma brucei brucei; test: Antitrypanosomal activity against Trypanosoma brucei brucei assessed as reduction in parasite growth by cell-based assay; format: functional, organism-based
# [7] = Cytotoxicity against human CCRF-CEM cells assessed as cell growth inhibition; format: toxicity, cell-based
# [8] = Binding affinity to Trypanosoma brucei […] assessed as inhibition constant
# [9] = Selectivity index, ratio of EC50 for human MRC5 cells to EC50 for Trypanosoma brucei brucei; format: functional
SMILES,EC50 [6] [µM],Ki [8] [µM],Selectivity Index [1],IC50 [2] [µM],IC50 [3] [µM],IC50 [4] [µM],IC50 [5] [µM],IC50 [7] [µM],Ratio EC50 [9]
N#CCCN(CCn1cc(-c2ccccc2)c2c(N)ncnc21)CCP(=O)(O)O,,1.73,,,,,,,
COc1ccc(-c2cn(CCN(CCC#N)CCP(=O)(O)O)c3ncnc(N)c23)cc1,,2.2,,,,,,,
N#CCN(CCn1cc(-c2ccccc2)c2c(N)ncnc21)CCP(=O)(O)O,,9.5,,,,,,,
CCOC(=O)[C@H](Cc1ccccc1)NP(=O)(CCN(CC#N)CCn1cc(-c2ccccc2)c2c(N)ncnc21)N[C@@H](Cc1ccccc1)C(=O)OCC,1.61,,6.5,> 20,11,10.4,8.7,5.9,
Nc1ncnc2c1c(-c1ccccc1)cn2CCN(CCP(=O)(O)O)CCP(=O)(O)O,,10.7,,,,,,,
COc1ccc(-c2cn(CCN(CC#N)CCP(=O)(O)O)c3ncnc(N)c23)cc1,,10.9,,,,,,,
Nc1ncnc2c1c(-c1ccccc1)cn2CCN(CCO)CCP(=O)(O)O,,14.1,,,,,,,
COc1ccc(-c2cn(CCN(CCO)CCP(=O)(O)O)c3ncnc(N)c23)cc1,,2.25,,,,,,,
COc1ccc(-c2cn(CCN(CCP(=O)(O)O)CCP(=O)(O)O)c3ncnc(N)c23)cc1,,3.97,,,,,,,
Nc1ncnc2c1ccn2[C@@H]1O[C@H](CO)[C@@H](O)[C@H]1O [TUBERCIDIN],0.16,~330,0.4,0.05,0.1,0.07,0.14,0.11,4

# The next lines start with results.
EC50 [6] [µM],Ki [8] [µM],SMILES,Selectivity Index [1],IC50 [2] [µM],IC50 [3] [µM],IC50 [4] [µM],IC50 [5] [µM],IC50 [7] [µM],Ratio EC50 [9]
2.24,,CCOC(=O)[C@H](Cc1ccccc1)NP(=O)(CCN(CC#N)CCn1cc(-c2ccc(OC)cc2)c2c(N)ncnc21)N[C@@H](Cc1ccccc1)C(=O)OCC,3.5,> 20,> 20,7.9,6.7,4.2,
3.47,,CCOC(=O)[C@H](Cc1ccccc1)NP(=O)(CCN(CCO)CCn1cc(-c2ccc(OC)cc2)c2c(N)ncnc21)N[C@@H](Cc1ccccc1)C(=O)OCC,3.8,> 20,> 20,13.2,> 20,6.2,
0.58,,CCOC(=O)[C@H](Cc1ccccc1)NP(=O)(CCN(CCn1cc(-c2ccc(OC)cc2)c2c(N)ncnc21)CCP(=O)(N[C@@H](Cc1ccccc1)C(=O)OCC)N[C@@H](Cc1ccccc1)C(=O)OCC)N[C@@H](Cc1ccccc1)C(=O)OCC,16.4,6.6,5.4,9.5,4.6,4,
6.81,,CCOC(=O)[C@H](Cc1ccccc1)NP(=O)(CCN(CCC#N)CCn1cc(-c2ccc(OC)cc2)c2c(N)ncnc21)N[C@@H](Cc1ccccc1)C(=O)OCC,2.4,> 20,> 20,16.4,> 20,> 20,
4.19,,CCOC(=O)[C@H](Cc1ccccc1)NP(=O)(CCN(CCC#N)CCn1cc(-c2ccccc2)c2c(N)ncnc21)N[C@@H](Cc1ccccc1)C(=O)OCC,>4.8,14.1,> 20,> 20,8.6,5.6,
1.21,,CCOC(=O)[C@H](Cc1ccccc1)NP(=O)(CCN(CCn1cc(-c2ccccc2)c2c(N)ncnc21)CCP(=O)(N[C@@H](Cc1ccccc1)C(=O)OCC)N[C@@H](Cc1ccccc1)C(=O)OCC)N[C@@H](Cc1ccccc1)C(=O)OCC,7.4,6.3,4.9,8.9,4.2,3.8,
1.9,,CCOC(=O)[C@H](Cc1ccccc1)NP(=O)(CCN(CCO)CCn1cc(-c2ccccc2)c2c(N)ncnc21)N[C@@H](Cc1ccccc1)C(=O)OCC,10,14.7,> 20,18.9,> 20,6.7,

# — ChEMBL document CHEMBL5338716, “Synthesis and anti-trypanosomal evaluation of novel N-branched acyclic nucleoside phosphonates bearing 7-aryl-7-deazapurine nucleobase” (Eur J Med Chem, 2022)
